Experiment: Serum chemistry in monkeys, 2 mg/kg 30-min IV infusion
Assay type: in vivo, Cynomolgus monkeys
Experimental: TH 3423 and TH 3424 were tested in […] naïve monkeys (1 male and one female for each compound at 2 mg/kg) with 30-min intravenous infusion, TK sampling: on Day 1 and Day 15: 0.25, 0.5, 0.75, 1 and 2 hr post infusion initiation. Serum chemistry and hematology: pre-dose (Day 1), day 5, day 8 (pre-dose), day 15 (pre-dose), day 22 and day 28. Clinical observation: Daily during the study, total 35 days. Food consumption: Daily during the study, total 35 days. Bodyweight measurement: Twice weekly for five weeks.

Structure (SMILES): C[C@@H](OP(=O)(N1CC1)N1CC1)c1ccc([N+](=O)[O-])c(Oc2cccc(C(=O)N(C)C)c2)c1 (single isomer, unassigned) [TH3423]
- A/G (female, Day 1 (pre-dose)): 1.8
- ALB (female, Day 1 (pre-dose)): 42 g/L
- ALP (female, Day 1 (pre-dose)): 205.5 U/L
- ALT (female, Day 1 (pre-dose)): 41.7 U/L
- AST (female, Day 1 (pre-dose)): 43.3 U/L
- BUN (female, Day 1 (pre-dose)): 4.06 mM
- CK (female, Day 1 (pre-dose)): 342 U/L
- CREA (female, Day 1 (pre-dose)): 95 µM
- Ca (female, Day 1 (pre-dose)): 2.39 mmol/L
- GLB (female, Day 1 (pre-dose)): 24 g/L
- Glu (female, Day 1 (pre-dose)): 6.03 mM
- K (female, Day 1 (pre-dose)): 6.14 mmol/L
- Na (female, Day 1 (pre-dose)): 146 mmol/L
- TBIL (female, Day 1 (pre-dose)): 0.0 µM
- TC (female, Day 1 (pre-dose)): 2.48 mM
- TG (female, Day 1 (pre-dose)): 0.45 mmol/L
- TP (female, Day 1 (pre-dose)): 66.0 g/L
- γ-GT (female, Day 1 (pre-dose)): 41.5 U/L
- A/G (female, Day 8 (pre-dose)): 1.3
- ALB (female, Day 8 (pre-dose)): 40.9 g/L
- ALP (female, Day 8 (pre-dose)): 190.3 U/L
- ALT (female, Day 8 (pre-dose)): 25.5 U/L
- AST (female, Day 8 (pre-dose)): 57.7 U/L
- BUN (female, Day 8 (pre-dose)): 7.61 mM
- CK (female, Day 8 (pre-dose)): 126 U/L
- CREA (female, Day 8 (pre-dose)): 120 µM
- Ca (female, Day 8 (pre-dose)): 2.47 mmol/L
- GLB (female, Day 8 (pre-dose)): 30.9 g/L
- Glu (female, Day 8 (pre-dose)): 2.13 mM
- K (female, Day 8 (pre-dose)): 4.83 mmol/L
- Na (female, Day 8 (pre-dose)): 149 mmol/L
- TBIL (female, Day 8 (pre-dose)): 0.4 µM
- TC (female, Day 8 (pre-dose)): 3.01 mM
- TG (female, Day 8 (pre-dose)): 1.17 mmol/L
- TP (female, Day 8 (pre-dose)): 71.8 g/L
- γ-GT (female, Day 8 (pre-dose)): 37.0 U/L
- A/G (female, Day 15 (pre-dose)): 1.7
- ALB (female, Day 15 (pre-dose)): 34.2 g/L
- ALP (female, Day 15 (pre-dose)): 123.6 U/L
- ALT (female, Day 15 (pre-dose)): 21.1 U/L
- AST (female, Day 15 (pre-dose)): 76.7 U/L
- BUN (female, Day 15 (pre-dose)): 5.96 mM
- CK (female, Day 15 (pre-dose)): 78 U/L
- CREA (female, Day 15 (pre-dose)): 69 µM
- Ca (female, Day 15 (pre-dose)): 2.36 mmol/L
- GLB (female, Day 15 (pre-dose)): 20.7 g/L
- Glu (female, Day 15 (pre-dose)): 2.51 mM
- K (female, Day 15 (pre-dose)): 4.81 mmol/L
- Na (female, Day 15 (pre-dose)): 128.17 mmol/L
- TBIL (female, Day 15 (pre-dose)): 1.4 µM
- TC (female, Day 15 (pre-dose)): 2.02 mM
- TG (female, Day 15 (pre-dose)): 0.84 mmol/L
- TP (female, Day 15 (pre-dose)): 54.9 g/L
- γ-GT (female, Day 15 (pre-dose)): 29.4 U/L
- A/G (male, Day 1 (pre-dose)): 1.8
- ALB (male, Day 1 (pre-dose)): 46.9 g/L
- ALP (male, Day 1 (pre-dose)): 746.4 U/L
- ALT (male, Day 1 (pre-dose)): 45.0 U/L
- AST (male, Day 1 (pre-dose)): 37.0 U/L
- BUN (male, Day 1 (pre-dose)): 3.47 mM
- CK (male, Day 1 (pre-dose)): 146 U/L
- CREA (male, Day 1 (pre-dose)): 66 µM
- Ca (male, Day 1 (pre-dose)): 2.54 mmol/L
- GLB (male, Day 1 (pre-dose)): 26 g/L
- Glu (male, Day 1 (pre-dose)): 3.12 mM
- K (male, Day 1 (pre-dose)): 6.92 mmol/L
- Na (male, Day 1 (pre-dose)): 143 mmol/L
- TBIL (male, Day 1 (pre-dose)): 5.2 µM
- TC (male, Day 1 (pre-dose)): 2.1 mM
- TG (male, Day 1 (pre-dose)): 0.24 mmol/L
- TP (male, Day 1 (pre-dose)): 72.9 g/L
- γ-GT (male, Day 1 (pre-dose)): 78.4 U/L
- A/G (male, Day 8 (pre-dose)): 1.1
- ALB (male, Day 8 (pre-dose)): 39.1 g/L
- ALP (male, Day 8 (pre-dose)): 540.3 U/L
- ALT (male, Day 8 (pre-dose)): 21.0 U/L
- AST (male, Day 8 (pre-dose)): 40.8 U/L
- BUN (male, Day 8 (pre-dose)): 26.8 mM
- CK (male, Day 8 (pre-dose)): 153 U/L
- CREA (male, Day 8 (pre-dose)): 141 µM
- Ca (male, Day 8 (pre-dose)): 2.55 mmol/L
- GLB (male, Day 8 (pre-dose)): 37.1 g/L
- Glu (male, Day 8 (pre-dose)): 5.28 mM
- K (male, Day 8 (pre-dose)): 5.86 mmol/L
- Na (male, Day 8 (pre-dose)): 112 mmol/L
- TBIL (male, Day 8 (pre-dose)): 9.8 µM
- TC (male, Day 8 (pre-dose)): 1.72 mM
- TG (male, Day 8 (pre-dose)): 2.25 mmol/L
- TP (male, Day 8 (pre-dose)): 76.2 g/L
- γ-GT (male, Day 8 (pre-dose)): 37.6 U/L
